Assay: CO concentration of the CO-containing compositions analyzed by gas chromatography
Format: physicochemical
Details: about 2 atm; for CO concentration of liquid phase obtained by actual measurement: solvent H2O; for CO concentration in liquid phase obtained by actual measurement: solvent carbomer aqueous solution; for CO concentration of IPM: solvent isopropyl myristate
Protocol: (§1) Pure water (2.5 mL) was placed in a vial. (3 mL, produced by Maruemu Corporation), and the vial was sealed with a rubber stopper and an aluminum seal. Next, a gas (N2 balance) having an arbitrarily adjusted CO concentration was collected in a Tedlar bag (1 L, produced by AS ONE Corporation). The air in the gas phase in the vial was replaced with the gas in the Tedlar bag until pressure reached about 2 atm by using a gas-tight syringe (M-GAN500, produced by Ito Corporation). Subsequently, the resulting product was allowed to stand until CO in the gas phase was dissolved in the liquid phase to reach equilibrium.
The CO concentration of the compositions was analyzed by gas chromatography (GC-2014 FID produced by Shimadzu Corporation).
as §1, with “Isopropyl myristate (IPM: Wako first grade, produced by Fujifilm Wako Pure” for “Pure”, “Chemical Corporation)” for “water”, “vial” for “vial.”, “(MS-GAN500,” for “(M-GAN500,”
The CO concentration of the obtained compositions was analyzed by gas chromatography (GC-2014 FID produced by Shimadzu Corporation). When the CO (%) in the gas phase in the Tedlar bag was 18%, the CO concentration of IPM was 1500 μM. When the CO (%) in the gas phase in the Tedlar bag was 100%, the CO concentration of IPM was 9000 μM.
as §1, with “The carbomer aqueous solution” for “Pure water”, “vial” for “vial.”, “(MS-GAN500,” for “(M-GAN500,”
as §1, with “The hydroxyethyl cellulose aqueous solution” for “Pure water”, “vial” for “vial.”, “(MS-GAN500,” for “(M-GAN500,”
The CO concentration of the obtained CO-containing compositions was analyzed by gas chromatography (GC-2014 FID produced by Shimadzu Corporation). When the CO (%) in the gas phase in the Tedlar bag was 100%, the CO concentration in the hydroxyethyl cellulose aqueous solution was 1500 μM.

[1] = CO in gas phase in Tedlar bag 8% (theoretical value)
[2] = CO in gas phase in Tedlar bag 100% (theoretical value)

## [C-]#[O+] [CO, carbon monoxide]
[1]
  CO concentration of liquid phase obtained by actual measurement: 100 µM
  CO concentration in liquid phase obtained by actual measurement: 100 µM
CO in gas phase in Tedlar bag 34% (theoretical value)
  CO concentration of liquid phase obtained by actual measurement: 500 µM
CO in gas phase in Tedlar bag 67% (theoretical value)
  CO concentration of liquid phase obtained by actual measurement: 1000 µM
[2]
  CO concentration of liquid phase obtained by actual measurement: 1500 µM
  CO concentration in liquid phase obtained by actual measurement: 1500 µM
CO in gas phase in Tedlar bag 35% (theoretical value)
  CO concentration in liquid phase obtained by actual measurement: 500 µM
Solvent hydroxyethyl cellulose aqueous solution, CO in gas phase in Tedlar bag 100%
  CO concentration in the hydroxyethyl cellulose aqueous solution: 1500 µM
CO in gas phase in Tedlar bag 18%
  CO concentration of IPM: 1500 µM
CO in gas phase in Tedlar bag 100%
  CO concentration of IPM: 9000 µM
